Consider 4 compounds from PubChem BioAssay AID2060502 (Molecular Pharmacology Branch, DTP, NCI, 2025).

SMILES strings stand for the structures. Where “and” joins values, the source holds several entries; their conditions need not be identical. Equal values may be shown once.

This assay has as its system 885724-159-R-J1-PDC complex spheroid viability. Description: Anticancer human tumor 885724-159-R-J1-PDC patient-derived pancreatic adenocarcinoma cell line growth inhibition [GQUAD]. The following applies: for viability, T/C: stronger effect = lower value. From the text: DNA G-quadruplex Stabilizer Agents in Combinations in Complex Spheroids
A high-throughput screen of multi-cell type tumor spheroids was designed to identify active combinations of DNA G-quadruplex stabilizer agents and targeted small molecules. Complex spheroids include a stromal component modeled by human endothelial cells (HUVEC) and fibroblasts modeled by human mesenchymal stem cells (MSCs). The concentration ranges selected for each drug and investigational agent were based upon clinically achievable concentrations if the clinical Cmax of the agent was known.
Compounds. The drugs and investigational agents: pidnarulex (CX-5461; NSC782164), APTO-253 (NSC789042), BRACO-19 (NSC847499), peposertib (NSC802822), ceralasertib (NSC780249), elimusertib (NSC800525), camonsertib (NSC841442), AZD-1390 (NSC803789), olaparib (NSC753686), talazoparib (NSC767125), ART-558 (NSC835418), sotorasib (NSC818433), MRTX-1133 (NSC836407), SN-38 (NSC673596), topotecan (NSC609699), etoposide (NSC141540), doxorubicin (NSC123127), gemcitabine (NSC613327), 5-fluorouracil (NSC19893), paclitaxel (NSC125973), vemurafenib (NSC761431), panobinostat (NSC761190), R-306465 (JNJ-16241199; NSC773264), adavosertib (NSC754352), TP-3654 (NSC805149), carboplatin (NSC241240), KSQ-4279 (NSC840948), and staurosporine (NSC755774) were obtained from the National Cancer Institute (NCI) Developmental Therapeutics Program Chemical Repository (34). The FDA-approved anticancer drug set is available from the NCI Developmental Therapeutics Program. […] The stock solutions were prepared in dimethyl sulfoxide (DMSO, Sigma-Aldrich, St. Louis, MO, cat. D2650) at 800-fold the tested concentration and stored at -70 degrees C prior to their use. All drugs and investigational agents were tested over a range starting from a high concentration at or near the clinical Cmax and decreasing in half-log increments. If the clinical Cmax for an agent had not been determined, the highest concentration tested was 10 microM.
2.3 Cell Culture. All cells were maintained in an incubator at 37 degrees C and 5% CO2 with 95% humidity. The PDC lines were cultured according to standard operating procedures established by the NCI PDMR. All PDCs were thawed and cultured in Matrigel-coated flasks prepared with a working solution of 1X Ham's F-12 nutrient mix, without supplementation (Invitrogen, cat. 11765054), 100 U/mL penicillin-streptomycin (Invitrogen, cat. 15140122), and 2.5% Matrigel (Corning Inc., cat. 354248) for the first three passages. The 857933-349-R-J2-PDC line was cultured in 6C/Colon 1B media, which includes advanced DMEM/F-12 (Thermo Fisher Scientific, cat. 12634028), 10 mM HEPES (Thermo Fisher Scientific, cat. 15630080), 1X GlutaMAX supplement (Thermo Fisher Scientific, cat. 35050061), 0.1 mg/mL primocin (InvivoGen, cat. ant-pm-2), 10% defined fetal bovine serum, heat inactivated (HyClone Laboratories Inc., cat. SH30070.03HI), 50% L-WRN conditioned media (ATCC, cat. CRL-3276), 1.25 mM N-Acetyl-L-cysteine (Sigma-Aldrich, cat. A9165), 10 mM nicotinamide (Sigma-Aldrich, cat. N0636), 1X B-27 supplement (Thermo Fisher Scientific, cat. 17504044), 1X N-2 supplement (Thermo Fisher Scientific, cat. 17502048), 10 microM Y-27632 dihydrochloride (Tocris Bioscience, cat. 1254), and 50 ng/mL human EGF recombinant protein (Thermo Fisher Scientific, cat. PHG0311). The 485176-168-R4-J1-PDC line was cultured in Panc media, which includes all 6C/Colon 1B media components plus 100 ng/mL human FGF-10 (Thermo Fisher Scientific, cat. 100-26), 500 nM SB-431542 (Selleckchem, cat. S1067), and gastrin (Tocris, cat. 3006).
[…]
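Also: spheroids exposed to agents for seven days before readout.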
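For viability, T/C in this document: percent of vehicle control viability where 100% = DMSO wells.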

Take `CC(C)n1c(=O)n(C)c2cnc3cc(F)c(-c4ccc(OCCCN5CCCCC5)nc4)cc3c21` + Cc1cnc(CNC(=O)c2c(=O)c3ccc(N4CCCN(C)CC4)nc3n3c2sc2ccccc23)cn1: the IC50 is above 10 µM (curve of first compound, second compound 0.0316 µM); above 10 µM (curve of first compound, second compound 0.1 µM); above 10 µM (curve of first compound, second compound 0.316 µM); above 10 µM (curve of first compound, second compound 1 µM); 6.48 µM (curve of first compound, second compound 3.16 µM); 5.27 µM (curve of first compound, second compound 10 µM). Further, the viability, T/C reads like this: (second compound 0.0316 µM, first compound 0.0316 µM) 91.3%; (second compound 0.0316 µM, first compound 0.1 µM) 94.1%; (second compound 0.0316 µM, first compound 0.316 µM) 95.3%; (second compound 0.0316 µM, first compound 1 µM) 114%; (second compound 0.0316 µM, first compound 3.16 µM) 77.6%; (second compound 0.0316 µM, first compound 10 µM) 65.7%. Further, the viability, T/C is, setting by setting: (second compound 0.1 µM, first compound 0.0316 µM) 108%; (second compound 0.1 µM, first compound 0.1 µM) 107%; (second compound 0.1 µM, first compound 0.316 µM) 96.1%; (second compound 0.1 µM, first compound 1 µM) 106%; (second compound 0.1 µM, first compound 3.16 µM) 93.6%; (second compound 0.1 µM, first compound 10 µM) 67.2%. In addition, the viability, T/C reads like this: (second compound 0.316 µM, first compound 0.0316 µM) 92.6%; (second compound 0.316 µM, first compound 0.1 µM) 93%; (second compound 0.316 µM, first compound 0.316 µM) 88.5%; (second compound 0.316 µM, first compound 1 µM) 108%; (second compound 0.316 µM, first compound 3.16 µM) 81.2%; (second compound 0.316 µM, first compound 10 µM) 64.2%. The viability, T/C (second compound 1 µM, first compound 0.0316 µM) is 82.5%; the viability, T/C (second compound 1 µM, first compound 0.1 µM) is 87.1%; the viability, T/C (second compound 1 µM, first compound 0.316 µM) was 90.5%; the viability, T/C (second compound 1 µM, first compound 1 µM) was 94.6%; the viability, T/C (second compound 1 µM, first compound 3.16 µM) was 78.5%; the viability, T/C (second compound 1 µM, first compound 10 µM) was 53.1%. For the same compound, the viability, T/C by setting is: (second compound 3.16 µM, first compound 0.0316 µM) 73.2%; (second compound 3.16 µM, first compound 0.1 µM) 73.4%; (second compound 3.16 µM, first compound 0.316 µM) 78.8%; (second compound 3.16 µM, first compound 1 µM) 68.3%; (second compound 3.16 µM, first compound 3.16 µM) 67.8%; (second compound 3.16 µM, first compound 10 µM) 39.9%. Also, the viability, T/C runs as follows: (second compound 10 µM, first compound 0.0316 µM) 76.1%; (second compound 10 µM, first compound 0.1 µM) 71.1%; (second compound 10 µM, first compound 0.316 µM) 73.8%; (second compound 10 µM, first compound 1 µM) 70.8%; (second compound 10 µM, first compound 3.16 µM) 61.7%; (second compound 10 µM, first compound 10 µM) 35.3%.
In the case of `COc1ccc([C@@H](O)c2cc(-c3ncnc4cc(N5CCOCC5)ccc34)c(F)cc2Cl)nn1`, the viability, T/C is 97.9% and 93.6% and 102% (compound 0.0316 µM); 99.9% and 83.8% and 90.8% (compound 0.1 µM); 85.5% and 98.2% and 81.1% (compound 0.316 µM); 87.8% and 74.6% and 83.2% (compound 1 µM); 64.8% and 59.1% and 64.2% (compound 3.16 µM); 39.9% and 41.8% and 37.1% (compound 10 µM). The half-inhibitory concentration (IC50) (curve of compound) is 6.4 µM and 5.56 µM and 5.78 µM.
With `Cc1cccc(N(C)C(=O)C2C(O)CCN2c2nc(C)cc(C(F)(F)F)c2C#N)c1` (stereo not drawn), the viability, T/C runs as follows: (compound 0.0316 µM) 98.5% and 93% and 97.9%; (compound 0.1 µM) 93.8% and 90.7% and 89.8%; (compound 0.316 µM) 90.9% and 103% and 97%; (compound 1 µM) 92.1% and 105% and 93.5%; (compound 3.16 µM) 97.1% and 97.4% and 96.8%; (compound 10 µM) 95.8% and 104% and 89.9%. Besides, under “curve of compound”, the 50% inhibitory concentration (IC50) was above 10 µM.
`COc1ncnc(C2CC2)c1-c1ncc2cnn(Cc3ccc(-c4nc(C(F)(F)F)cn4C(C)C)cc3)c2n1`: the viability, T/C (compound 0.0316 µM) was 86.6% and 90.5% and 93%; the viability, T/C (compound 0.1 µM) was 95.1% and 90.7% and 98.2%; the viability, T/C (compound 0.316 µM) is 99% and 97.4% and 93.2%; the viability, T/C (compound 1 µM) was 99.8% and 90.6% and 97.7%; the viability, T/C (compound 3.16 µM) was 90.2% and 96% and 92.5%; the viability, T/C (compound 10 µM) is 115% and 101% and 113%. Also, the IC50 (curve of compound) is above 10 µM.

By IC50 is commonly meant the concentration that inhibits the measured activity by half. As a reminder, the viability, T/C is the result in the treated group divided by that in the control group, in per cent.
